From PubChem BioAssay AID2060898 (Molecular Pharmacology Branch, DTP, NCI, 2025)
Values joined by “and” are separate entries in the source; they are usually repeats but may differ in a detail not shown here. Identical values can stand only once.

Tested on: 616215-338-R-J1-PDC complex spheroid viability
Experiment: Anticancer human tumor 616215-338-R-J1-PDC patient-derived colon adenocarcinoma cell line growth inhibition [RAS]
Details: for viability, T/C: stronger effect = lower value
From the text: RAS pathway inhibitors in Combinations in Complex Spheroids
A high-throughput screen of multi-cell type tumor spheroids was designed to identify active combinations of RAS pathway inhibitors and targeted small molecules. Complex spheroids include a stromal component modeled by human endothelial cells (HUVEC) and fibroblasts modeled by human mesenchymal stem cells (MSCs). The concentration ranges selected for each drug and investigational agent were based upon clinically achievable concentrations if the clinical Cmax of the agent was known.
Compounds. The drugs and investigational agents: abemaciclib (NSC768073), cobimetinib (NSC768068), divarasib (GDC6063, NSC841802), docetaxel (NSC628503), GDC-1971 (RLY-1971, NSC841576), gemcitabine (NSC613327), inavolisib (NSC800729), ipatasertib (NSC767898), KB-0742 (NSC834161), MRTX-1133 (NSC836407), osimertinib (NSC779217), RMC-4630 (NSC839698), RMC-6236 (NSC851965), RMC-6291 (NSC852671), Ro-3306 (NSC812927), sapanisertib (NSC764658), SN-38 (NSC673596), staurosporine (NSC755774), SY5609 (NSC837396), and tovorafenib (DAY101, NSC766906), were obtained from the National Cancer Institute (NCI) Developmental Therapeutics Program Chemical Repository. The FDA-approved anticancer drug set is available from the NCI Developmental Therapeutics Program. […] The stock solutions were prepared in dimethyl sulfoxide (DMSO, Sigma-Aldrich, St. Louis, MO, cat. D2650) at 800-fold the tested concentration and stored at -70 degrees C prior to their use. All drugs and investigational agents were tested over a range starting from a high concentration at or near the clinical Cmax and decreasing in half-log increments. If the clinical Cmax for an agent had not been determined, the highest concentration tested was 10 microM.
Cell Culture. All cells were maintained in an incubator at 37 degrees C and 5% CO2 with 95% humidity. The PDC lines were cultured according to standard operating procedures established by the NCI PDMR. All PDCs were thawed and cultured in Matrigel-coated flasks prepared with a working solution of 1X Ham's F-12 nutrient mix, without supplementation (Invitrogen, Waltham, MA, cat. 11765054), 100 U/mL penicillin-streptomycin (Invitrogen, cat. 15140122), and 2.5% Matrigel (Corning Inc., Corning, NY, cat. 354248) for the first three passages. The 362531-283-R-J2-PDC and 782815-120-R-J1-PDC lines were cultured in 6C/Colon 1B media, which includes advanced DMEM/F-12 (Thermo Fisher Scientific, cat. 12634028), 10 mM HEPES (Thermo Fisher Scientific, cat. 15630080), 1X GlutaMAX supplement (Thermo Fisher Scientific, cat. 35050061), 0.1 mg/mL primocin (InvivoGen, San Diego, CA, cat. ant-pm-2), 10% defined fetal bovine serum, heat inactivated (HyClone Laboratories Inc., Logan, UT, cat. SH30070.03HI), 50% L-WRN conditioned media (ATCC, cat. CRL-3276), 1.25 mM N-Acetyl-L-cysteine (Sigma-Aldrich, cat. A9165), 10 mM nicotinamide (Sigma-Aldrich, cat. N0636), 1X B-27 supplement (Thermo Fisher Scientific, cat. 17504044), 1X N-2 supplement (Thermo Fisher Scientific, cat. 17502048), 50 ng/mL human EGF (Thermo Fisher Scientific, cat. PHG0311), and 10 microM Y-27632 dihydrochloride (Tocris Bioscience, cat. 1254). The K12877-001-R-J1-PDC line was cultured in 6I media, which includes all 6C/Colon 1B media plus 10 ng/mL human FGF-10 (PeproTech, cat. 100-26), 1 ng/mL human FGF-2 (PeproTech, cat. 100-18B), 1 µM prostaglandin E2 (Tocris Bioscience, cat. 2296), […] hydrocortisone (Sigma-Aldrich, cat. H4001), and […] bovine insulin (Sigma-Aldrich, cat. I6634). The K86415-001-R-J1-PDC line was cultured in 6D media, which includes all 6C/Colon 1B media components minus the L-WRN conditioned media. The 485176-168-R4-J1-PDC was cultured in PANC media, which includes all 6C/Colon 1B media plus 100 ng/mL human FGF-10 (PeproTech, cat. 100-26), 500 nM SB-431542 (Selleckchem, cat. S1067), and 10 nM gastrin (Tocris Bioscience, cat. 3006). […]

[1] = compound alone, run of 06/10/2024
[2] = compound alone, run of 05/20/2024
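Further: spheroids exposed to agents for seven days before viability readout.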
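Wherever viability, T/C is given: 100% = DMSO vehicle control viability.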

SMILES	viability, T/C (compound 0.0316 µM)	viability, T/C (compound 0.1 µM)	viability, T/C (compound 0.316 µM)	viability, T/C (compound 1 µM)	viability, T/C (compound 3.16 µM)	viability, T/C (compound 10 µM)	viability, T/C (compound 0.00316 µM)	viability, T/C (compound 0.01 µM)	IC50 (curve of compound)	further results
C#Cc1c(F)ccc2cc(O)cc(-c3ncc4c(N5CC6CCC(C5)N6)nc(OCC56CCCN5CC(F)C6)nc4c3F)c12 (stereo unspecified)	107% [middle of 8 runs]	107% [middle of 8 runs]	110% [middle of 8 runs]	108% [middle of 8 runs]	102% [middle of 8 runs]	70.6% [middle of 8 runs]				IC50 [1]: > 10000 nM
C=CC(=O)N1CCN(c2nc(OCC3CCCN3C)nc3c(F)c(-c4nc(N)cc(C)c4C(F)(F)F)c(Cl)cc23)C(C)C1 (stereo unspecified)	99.4% [middle of 12 runs]	102% [middle of 12 runs]	104% [middle of 12 runs]	103% [middle of 12 runs]			100% [middle of 12 runs]	102% [middle of 12 runs]	> 1000 nM	IC50 [1]: > 1000 nM
C=CC(=O)Nc1cc(Nc2nccc(-c3cn(C)c4ccccc34)n2)c(OC)cc1N(C)CCN(C)C	103% [middle of 4 runs]	105% [middle of 4 runs]	109% [middle of 4 runs]	74.3% [middle of 4 runs]			96.5% [middle of 4 runs]	100% (2×) and 96% and 97.4%	> 1000 nM	
CC(C)NCC(C(=O)N1CCN(c2ncnc3c2C(C)CC3O)CC1)c1ccc(Cl)cc1 (stereo unspecified)	105% [middle of 4 runs]	100% [middle of 4 runs]	100% [middle of 4 runs]	101% [middle of 4 runs]	95.3% (2×) and 87.8% and 95.7%	49.3% [middle of 4 runs]				
CC(C)n1nc(-c2ccc3oc(N)nc3c2)c2c(N)ncnc21	110% [middle of 4 runs]	75.2% [middle of 4 runs]					94.6% and 107% (2×) and 98%	107% [middle of 4 runs]	> 100 nM	viability, T/C (compound 0.000316 µM): 99.5% (2×) and 101% and 97.1%; viability, T/C (compound 0.001 µM): 105% [middle of 4 runs]
CC(Nc1ccc2c(c1)OCCn1cc(N3C(=O)OCC3C(F)F)nc1-2)C(N)=O (stereo unspecified)	111% [middle of 4 runs]	108% [middle of 4 runs]	110% [middle of 4 runs]	107% [middle of 4 runs]	102% [middle of 4 runs]	83.5% [middle of 4 runs]			> 10000 nM	
CC1(C)CCC(Nc2ncc(C(F)(F)F)c(-c3c[nH]c4c(P(C)(C)=O)c(C#N)ccc34)n2)CN1 (stereo unspecified)									20.3 nM [middle of 4 runs]	viability, T/C (compound 0.000949 µM): 98.8% [middle of 4 runs]; viability, T/C (compound 0.003 µM): 101% [middle of 4 runs]; viability, T/C (compound 0.00949 µM): 66.1% [middle of 4 runs]; viability, T/C (compound 0.03 µM): 40.8% [middle of 4 runs]; viability, T/C (compound 0.0949 µM): 37% [middle of 4 runs]; viability, T/C (compound 0.3 µM): 35.2% [middle of 4 runs]
CC1(O)CCCC1n1c(=O)c(C(F)F)cc2cnc(NC3CCN(S(C)(=O)=O)CC3)nc21 (stereo unspecified)	112% [middle of 4 runs]	103% [middle of 4 runs]	59.3% [middle of 4 runs]	56.1% [middle of 4 runs]	48.9% [middle of 4 runs]	2.6% [middle of 4 runs]			1.23 µM [middle of 4 runs]	
CCC(CC)c1cc(NC2CCC(N)C2)n2nccc2n1 (stereo unspecified)	109% [middle of 4 runs]	99.7% and 102% (2×) and 93.3%	93.8% [middle of 4 runs]	107% [middle of 4 runs]	0.63% [middle of 4 runs]	0.37% [middle of 4 runs]			1.8 µM [middle of 4 runs]	
CCN1CCN(Cc2ccc(Nc3ncc(F)c(-c4cc(F)c5nc(C)n(C(C)C)c5c4)n3)nc2)CC1	113% [middle of 4 runs]	117% (3×) and 120%		64.1% (2×) and 70.2% and 59.4%				104% [middle of 4 runs]	> 1000 nM	
CCc1c2c(nc3ccc(O)cc13)-c1cc3c(c(=O)n1C2)COC(=O)[C@]3(O)CC										viability, T/C (compound 0.000949 µM): 104% [middle of 4 runs]; viability, T/C (compound 0.003 µM): 105% [middle of 4 runs]; viability, T/C (compound 0.03 µM): 37.2% [middle of 4 runs]; viability, T/C (compound 0.0949 µM): 24.3% [middle of 4 runs]; viability, T/C (compound 0.3 µM): 16.9% [middle of 4 runs]
CCn1c(-c2cc(N3CCN(C)CC3)cnc2C(C)OC)c2c3cc(ccc31)-c1csc(n1)CC(NC(=O)C1CC1C)C(=O)N1CCCC(N1)C(=O)OCC(C)(C)C2 (stereo unspecified)										viability, T/C (compound 0.000949 µM): 107% [middle of 8 runs]; viability, T/C (compound 0.003 µM): 106% [middle of 8 runs]; viability, T/C (compound 0.00949 µM): 81.7% [middle of 8 runs]; viability, T/C (compound 0.03 µM): 53.7% [middle of 8 runs]; viability, T/C (compound 0.0949 µM): 40.6% [middle of 8 runs]; viability, T/C (compound 0.3 µM): 37.5% [middle of 8 runs]; IC50 [2]: 41.2 nM [middle of 8 runs]
CCn1c(-c2cccnc2C(C)OC)c2c3cc(ccc31)N1CCOC(CC(NC(=O)C(C(C)C)N(C)C(=O)C3(F)CCN(C(=O)C#CC(C)(C)N(C)C)CC3)C(=O)N3CCCC(N3)C(=O)OCC(C)(C)C2)C1 (stereo unspecified)										viability, T/C (compound 0.000949 µM): 102% [middle of 8 runs]; viability, T/C (compound 0.003 µM): 102% [middle of 8 runs]; viability, T/C (compound 0.00949 µM): 107% [middle of 8 runs]; viability, T/C (compound 0.03 µM): 106% [middle of 8 runs]; viability, T/C (compound 0.0949 µM): 110% [middle of 8 runs]; viability, T/C (compound 0.3 µM): 109% [middle of 8 runs]; IC50 [2]: > 300 nM
C[C@@H](NC(=O)c1ncnc(N)c1Cl)c1ncc(C(=O)Nc2cc(C(F)(F)F)c(Cl)cn2)s1	102% [middle of 4 runs]	110% [middle of 4 runs]	112% [middle of 4 runs]	124% and 105% and 112% (2×)					> 10000 nM and 8870 nM	
Nc1ccn(C2OC(CO)C(O)C2(F)F)c(=O)n1 (stereo unspecified)	29.4% [middle of 4 runs]	16.2% [middle of 4 runs]	15.4% [middle of 4 runs]	15.7% [middle of 4 runs]			101% [middle of 4 runs]	46.9% [middle of 4 runs]	9.77 nM [middle of 4 runs]	
O=C(c1ccc(F)c(F)c1Nc1ccc(I)cc1F)N1CC(O)([C@@H]2CCCCN2)C1	81.5% [middle of 4 runs]	41.5% [middle of 4 runs]	19.9% [middle of 4 runs]	5.56% [middle of 4 runs]			111% [middle of 4 runs]	102% (2×) and 95.7% and 113%	78 nM [middle of 4 runs]	
